In brackets after ≈: the same amount, converted by molar mass.
Experiments:
[1] = In vitro microsomal stability, rat liver microsomes; format: in vitro ADME; settings: for microsomal CLint at […], 1 µM / half-life at […], 1 µM / half-life at 1 μM: pH 7.4, rat liver microsomes; for microsomal CLint at […], 1 µM: intrinsic clearance, read-out: Clint @ rLM; for half-life at […], 1 µM / half-life at 1 μM: rat, read-out: T1/2 @ rLM; for Rem. @ rLM (%): remaining fraction after 30 min, 1 μM compound, 0.5 mg/mL rat liver microsomes, 1 mM NADPH
Experimental: (§1) Compounds were incubated at a final concentration of 1 μM with 0.5 mg/mL human liver microsomes (hLM) (#HMMCPL; Thermo), mouse liver microsomes (mLM) (#MSMCPL; Thermo) or rat liver microsomes (rLM) (#RTMCPL; Thermo) and 1 mM reduced dihydronicotinamide-adenine dinucleotide phosphate (NADPH) (#N1630; Sigma) in 100 mM phosphate buffer (pH 7.4) at 37° C. The reactions were terminated at 0, 5, 15 and 30 min by the addition of cold acetonitrile containing 50 ng/mL propranolol as an internal standard. […] Verapamil hydrochloride (#V4369 Aldrich) was used as a positive control in all studies.

CYP2D6 = CYP2D6 (Homo sapiens (Human), UniProt P10635); test: CYP inhibition in human liver microsomes; settings: read-out: CYP-2D6; human liver microsomes; probe substrate dextromethorphan
Experimental: (§2) CYP inhibition by test compounds in human liver microsomes (HLM) for seven major CYP450 isoforms CYP1A2, CYP2C9, CYP2D6, CYP2B6, CYP2C8, CYP2C19 and CYP3A4 were assessed. […] 50 μM phenacetin, 2 μM midazolam, 5 μM diclofenac, 50 μM mephenytoin, 80 μM bupropion, and 5 μM dextromethorphan were used as probe substrates of CYP1A2, CYP3A4, CYP2C9, CYP2C19, CYP2B6, and CYP2D6, respectively. The incubation times were 20 min for […], CYP2D6, CYP2C9, CYP2B6, and CYP2C8; 40 min for CYP2C19; and 10 min for CYP 3A4. Following incubations, the reactions were terminated with acetonitrile containing internal standard. The samples were centrifuged and the supernatants were analyzed for the formation of metabolites (1-hydroxymidazolam (CYP3A4), 4-hydroxydiclofenac (CYP2C9), 4-hydroxymephenytoin (CYP2C19) and dextrorphan (CYP2D6), hydroxybupropion (CYP2B6), acetaminophen (CYP1A2), desethylamodiaquine (CYP2C8)) by LC/MS/MS.

CYP2C8 = CYP2C8 (Homo sapiens (Human), UniProt P10632); test: CYP inhibition in human liver microsomes; settings: read-out: CYP-2C8, metabolite desethylamodiaquine
Experimental: as §2

CYP2C19 = CYP2C19 (Homo sapiens (Human), UniProt P33261); test: CYP inhibition in human liver microsomes; settings: read-out: CYP-2C19; human liver microsomes; probe substrate mephenytoin
Experimental: as §2

CYP2B6 = CYP2B6 (Homo sapiens (Human), UniProt P20813); test: CYP inhibition in human liver microsomes; settings: read-out: CYP-2B6; human liver microsomes; probe substrate bupropion
Experimental: as §2

CYP3A4 = CYP3A4 (Homo sapiens (Human), UniProt P08684); test: CYP inhibition in human liver microsomes; settings: read-out: CYP-3A4; human liver microsomes; probe substrate midazolam
Experimental: as §2

CYP2C9 = CYP2C9 (Homo sapiens (Human), UniProt P11712); test: CYP inhibition in human liver microsomes; settings: read-out: CYP-2C9; human liver microsomes; probe substrate diclofenac
Experimental: as §2

ATF6 = test: ERSE ATF6-luciferase reporter assay (thapsigargin-induced ER stress); format: cell-based, human; settings: Homo sapiens, U2OS, thapsigargin-induced ER stress, U2-OS ATF6 luc reporter cells; for inhibition at 1 µM: 8 h, read-out: Inh. ATF6-Luc @ 1 μM [%], 1 μM test compound, 8 hr; for IC50: read-out: IC50 ATF6-Luc reporter [μM], dose-response 30 μM to 1 nM
[2] = mouse, in vivo, po, 10 mg/kg
Experimental: (§3) Tested compounds were formulated at 1 mg/mL as a dosing solution for oral administration in vehicle A: 10% dimethylacetamide (DMAC), 20% propylene glycol, and 40% PEG-400 or vehicle B: 10% Kolliphor® EL and 10% ethanol (EtOH).
(§4) Animals were acclimated for a minimum period of 4 days upon arrival at the testing facility.
(§5) At the day of study, mice were weighed, identified by marking the tail with numbers using a non-toxic permanent marker, and designated into ten experimental groups (n=3 per group).
(§6) Non-dosed mice were used to collect samples of zero time points. […] Blood samples were centrifuged immediately at 9,000 g at 4° C. for 5 minutes and then plasmas were separated. Plasma samples were placed into individually labeled cryovials and stored in a −80° C. freezer until LC/MS/MS bioanalysis.
(§7) The bioanalysis of plasma samples was conducted with a QTRAP 4500 triple quadrupole mass spectrometer (Applied Biosystems SCIEX) in the positive ion mode and interfaced with an Ekspert Ultra LC100 UPLC System (Eksigent). Calibration standards (0.01 to 10 μM) and QCs (0.02, 0.2 and 2.0 μM) were prepared from naïve mouse plasma in parallel with mouse plasma study samples (60 μL) by precipitation with three volumes of ice cold internal standard solution (acetonitrile containing 20 μM of theophylline). The precipitated samples were centrifuged at 6,100 g for 30 min. Following centrifugation, an aliquot of each supernatant was transferred to an autosampler plate and diluted with two volumes of aqueous mobile phase (0.1% formic acid in water). Samples were injected onto a reverse phase analytical column (YMC Triart C18; 2.0×50 mm; 1.9 μm; YMC CO) and eluted with a gradient of 0.1% formic acid in Acetonitrile. Assayed test compound and internal standards were monitored by a multiple reaction monitoring (MRM) experiment using an Analyst software (v1.6.2, Applied Biosystems SCIEX). Quantitation was conducted using a MultiQuant software (v2.1, Applied Biosystems SCIEX) and the resulting calibration curve was fitted with a linear regression and 1/x weighting. The lower limits of quantitation were 1<LLQ <5 ng/mL.

in vivo = settings: Balb/c, mouse, po, 10 mg/kg
Experimental: as §3, §4, §5, §6, §7

[3] = In vitro microsomal stability, human liver microsomes; format: in vitro ADME; settings: for microsomal CLint at […], 1 µM: intrinsic clearance, read-out: Clint @ hLM; for Rem. @ hLM (%): remaining fraction after 30 min, 1 μM compound, 0.5 mg/mL human liver microsomes, 1 mM NADPH
Experimental: as §1

[4] = In vitro microsomal stability, mouse liver microsomes; format: in vitro ADME; settings: for half-life at […], 1 µM / half-life at 1 μM: mouse, read-out: T1/2 @ mLM; for half-life at […], 1 µM / microsomal CLint at […], 1 µM / half-life at 1 μM: mouse liver microsomes, pH 7.4; for microsomal CLint at […], 1 µM: intrinsic clearance, read-out: Clint @ mLM; for Rem. @ mLM (%): remaining fraction after 30 min, 1 μM compound, 0.5 mg/mL mouse liver microsomes, 1 mM NADPH
Experimental: as §1

[5] = Kinetic solubility (nephelometry); format: physicochemical; settings: aqueous buffer, kinetic from dmso stock; PBS pH 7.4, 1% DMSO, 1 hour at 37° C., light scattering at 625 nm
Experimental: Concentration (μM) was then calculated by segmental regression. Amiodarone (#A8423 Aldrich) was used as positive control.

[6] = human, human liver microsomes, pH 7.4, read-out: T1/2 @ hLM

Chain of CYP2C19 (P33261 whole entry): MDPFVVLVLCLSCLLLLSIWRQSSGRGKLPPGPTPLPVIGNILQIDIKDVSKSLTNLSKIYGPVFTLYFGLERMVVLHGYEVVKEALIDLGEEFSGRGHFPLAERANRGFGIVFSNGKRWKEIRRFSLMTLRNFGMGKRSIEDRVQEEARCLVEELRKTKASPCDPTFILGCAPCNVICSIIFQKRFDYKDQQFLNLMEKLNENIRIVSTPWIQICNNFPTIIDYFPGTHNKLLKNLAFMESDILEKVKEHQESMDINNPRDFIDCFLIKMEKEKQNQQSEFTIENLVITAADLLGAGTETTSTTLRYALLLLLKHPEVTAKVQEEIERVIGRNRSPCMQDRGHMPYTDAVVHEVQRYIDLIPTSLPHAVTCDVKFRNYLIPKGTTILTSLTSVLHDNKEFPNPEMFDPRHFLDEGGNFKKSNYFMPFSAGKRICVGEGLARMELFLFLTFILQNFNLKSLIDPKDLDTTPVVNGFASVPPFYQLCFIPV
Chain of CYP3A4 (P08684 whole entry): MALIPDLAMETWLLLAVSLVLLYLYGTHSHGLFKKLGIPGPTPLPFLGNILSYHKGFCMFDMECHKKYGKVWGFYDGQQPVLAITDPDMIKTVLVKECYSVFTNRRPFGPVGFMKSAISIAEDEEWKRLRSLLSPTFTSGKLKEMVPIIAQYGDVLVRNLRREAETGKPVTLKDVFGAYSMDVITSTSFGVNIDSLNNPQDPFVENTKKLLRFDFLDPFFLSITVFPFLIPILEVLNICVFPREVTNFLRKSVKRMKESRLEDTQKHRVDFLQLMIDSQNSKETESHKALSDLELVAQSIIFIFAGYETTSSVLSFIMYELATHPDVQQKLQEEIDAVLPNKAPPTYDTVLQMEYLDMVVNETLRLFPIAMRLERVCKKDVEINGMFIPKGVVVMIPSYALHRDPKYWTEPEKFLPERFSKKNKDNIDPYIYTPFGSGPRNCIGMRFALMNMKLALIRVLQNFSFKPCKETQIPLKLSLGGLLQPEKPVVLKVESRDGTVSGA
Chain of CYP2B6 (P20813 whole entry): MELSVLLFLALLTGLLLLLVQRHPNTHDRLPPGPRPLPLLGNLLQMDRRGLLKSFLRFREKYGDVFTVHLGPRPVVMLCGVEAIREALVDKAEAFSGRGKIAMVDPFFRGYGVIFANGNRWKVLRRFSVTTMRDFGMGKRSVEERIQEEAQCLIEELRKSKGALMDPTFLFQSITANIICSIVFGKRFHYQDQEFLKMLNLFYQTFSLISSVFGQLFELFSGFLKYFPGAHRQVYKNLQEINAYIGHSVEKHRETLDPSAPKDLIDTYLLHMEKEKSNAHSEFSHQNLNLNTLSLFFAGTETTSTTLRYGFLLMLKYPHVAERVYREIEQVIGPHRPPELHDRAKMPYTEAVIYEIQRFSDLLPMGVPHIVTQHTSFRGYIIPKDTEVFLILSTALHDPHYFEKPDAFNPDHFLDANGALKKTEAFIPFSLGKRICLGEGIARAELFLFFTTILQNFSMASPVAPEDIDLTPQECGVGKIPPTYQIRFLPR
Chain of CYP2C8 (P10632 whole entry): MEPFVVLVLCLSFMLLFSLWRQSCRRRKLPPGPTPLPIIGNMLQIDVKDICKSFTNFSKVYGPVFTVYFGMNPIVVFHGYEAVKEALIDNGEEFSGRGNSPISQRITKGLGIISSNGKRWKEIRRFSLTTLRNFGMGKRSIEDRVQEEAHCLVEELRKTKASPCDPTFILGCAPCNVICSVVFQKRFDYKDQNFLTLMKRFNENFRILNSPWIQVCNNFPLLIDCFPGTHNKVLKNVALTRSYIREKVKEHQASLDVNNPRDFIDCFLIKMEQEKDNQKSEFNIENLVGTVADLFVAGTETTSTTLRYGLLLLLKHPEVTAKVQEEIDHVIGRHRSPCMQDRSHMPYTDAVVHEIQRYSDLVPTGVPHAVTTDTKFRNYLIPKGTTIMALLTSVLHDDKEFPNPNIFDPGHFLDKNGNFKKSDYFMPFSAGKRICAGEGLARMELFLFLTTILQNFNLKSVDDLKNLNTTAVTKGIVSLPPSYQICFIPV
Chain of CYP2C9 (P11712 whole entry): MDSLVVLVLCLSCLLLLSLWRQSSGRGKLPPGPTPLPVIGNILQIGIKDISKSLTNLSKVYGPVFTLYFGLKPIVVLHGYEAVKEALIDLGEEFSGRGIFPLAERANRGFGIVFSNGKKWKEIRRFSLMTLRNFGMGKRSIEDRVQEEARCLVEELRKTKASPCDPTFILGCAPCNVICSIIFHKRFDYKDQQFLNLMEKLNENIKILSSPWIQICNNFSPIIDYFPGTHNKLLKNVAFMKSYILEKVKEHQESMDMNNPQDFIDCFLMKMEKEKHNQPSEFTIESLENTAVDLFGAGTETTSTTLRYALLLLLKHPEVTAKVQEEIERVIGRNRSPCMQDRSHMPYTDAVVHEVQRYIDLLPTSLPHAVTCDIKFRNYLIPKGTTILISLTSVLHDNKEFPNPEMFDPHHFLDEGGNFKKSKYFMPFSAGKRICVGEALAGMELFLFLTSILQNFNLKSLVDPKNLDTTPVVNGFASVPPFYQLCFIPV
Chain of CYP2D6 (P10635 whole entry, canonical isoform): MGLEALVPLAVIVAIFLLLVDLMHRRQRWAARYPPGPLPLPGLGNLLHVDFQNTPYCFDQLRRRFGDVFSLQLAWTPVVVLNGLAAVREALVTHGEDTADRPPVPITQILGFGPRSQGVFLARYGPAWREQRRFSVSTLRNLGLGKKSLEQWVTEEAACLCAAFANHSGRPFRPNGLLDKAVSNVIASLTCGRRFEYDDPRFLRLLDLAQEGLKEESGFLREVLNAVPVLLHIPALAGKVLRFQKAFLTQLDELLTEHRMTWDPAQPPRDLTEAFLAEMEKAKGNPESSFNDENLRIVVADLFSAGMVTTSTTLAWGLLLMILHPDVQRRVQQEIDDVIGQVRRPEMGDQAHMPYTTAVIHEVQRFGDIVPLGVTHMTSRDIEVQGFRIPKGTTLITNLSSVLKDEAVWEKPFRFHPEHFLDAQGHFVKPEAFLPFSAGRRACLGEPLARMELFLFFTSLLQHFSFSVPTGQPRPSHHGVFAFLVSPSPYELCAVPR

| Structure (SMILES) | microsomal CLint at […], 1 µM [1] [µL/min/mg] | half-life at […], 1 µM [1] [h] | Rem. @ rLM (%) [1] [%] | IC50 (CYP2D6) [µM] | IC50 (CYP2C8) [µM] | IC50 (CYP2C19) [µM] | IC50 (CYP2B6) [µM] | IC50 (CYP3A4) [µM] | IC50 (CYP2C9) [µM] | inhibition at 1 µM (ATF6) [%] | IC50 (ATF6) [µM] | half-life at […], 1 µM [3, 6] [h] | microsomal CLint at […], 1 µM ([3]; pH 7.4, human liver microsomes) [µL/min/mg] | Rem. @ hLM (%) [3] [%] | half-life at […], 1 µM [4] [h] | microsomal CLint at […], 1 µM [4] [µL/min/mg] | Rem. @ mLM (%) [4] [%] | solubility kinetic at 1 h [5] [µM] | half-life at 1 μM [1] [h] | half-life at 1 μM [4] [h] | also measured |
| --- | --- | --- | --- | --- | --- | --- | --- | --- | --- | --- | --- | --- | --- | --- | --- | --- | --- | --- | --- | --- | --- |
| C[C@H](c1ccc(C(F)(F)F)cc1C(F)(F)F)n1cc(NC(=O)c2cc(-c3ccccn3)no2)cn1 [Compound 76, (R)—N-(1-(1-(2,4-bis(trifluoromethyl)phenyl)ethyl)-1H-pyrazol-4-yl)-3-(pyridin-2-yl)isoxazole-5-carboxamide] | 34.7 | 0.665 | 59.4 | 7.54 | 1.14 | 3.6 | 6.45 | > 50 | 6 | > 50 | < 1 | 0.96 | 24.1 | 69.7 | 1.2 | 19.3 | 74.9 | 7.03 (≈ 3.48 µg/mL) | – | – | AUCExtr [%] ([2]; Balb/c): 2.55%; F [%] ([2]; Balb/c): 50.6%; Vz ([2]; Balb/c): 1.45 L/kg; Last time point for AUClast [2]: 24 h; AUC(0-inf) (in vivo): 45300 ng·h/mL; AUC(0-t) (in vivo): 44100 ng·h/mL; Cmax (in vivo): 5180 ng/mL; Tmax (in vivo): 1 h; half-life (in vivo): 4.54 h |
| Cc1c(NC(=O)c2cc(-c3ccco3)on2)cnn1Cc1ccc(C(F)(F)F)cc1C(F)(F)F [Compound 93, N-(1-(2,4-bis(trifluoromethyl)benzyl)-5-methyl-1H-pyrazol-4-yl)-5-(furan-2-yl)isoxazole-3-carboxamide] | 20.2 | – | 69.8 | > 50 | > 50 | > 50 | > 50 | > 50 | > 50 | > 50 | < 1 | 1.27 | 18.2 | 74.1 | – | 34.7 | 51.1 | 2.92 (≈ 1.41 µg/mL) | 1.15 | 0.667 | – |
| Cc1nn([C@H](C)c2ccc(C(F)(F)F)cc2C(F)(F)F)cc1NC(=O)c1cc(-c2ccccn2)on1 [Compound 99, (R)—N-(1-(1-(2,4-bis(trifluoromethyl)phenyl)ethyl)-3-methyl-1H-pyrazol-4-yl)-5-(pyridin-2-yl)isoxazole-3-carboxamide] | 28.3 | – | 60.9 | 32 | 1 | 8.8 | 4.8 | > 50 | 2.5 | 25 to 50 | 1 to 10 | – | 39.2 | 49.2 | 0.272 | 85.2 | 29.2 | 2.34 (≈ 1.19 µg/mL) | 0.817 | – | half-life at 1 μM [3, 6]: 0.59 h |
| C[C@H](c1ccc(C(F)(F)F)cc1C(F)(F)F)n1cc(NC(=O)c2nnc(-c3cnccn3)s2)cn1 [Compound 152, (R)—N-(1-(1-(2,4-bis(trifluoromethyl)phenyl)ethyl)-1H-pyrazol-4-yl)-5-(pyrazin-2-yl)-1,3,4-thiadiazole-2-carboxamide] | 7.2 | 3.2 | 86.4 | > 50 | > 50 | > 50 | > 50 | > 50 | > 50 | > 50 | < 1 | 2.32 | 10 | 84.4 | 2.12 | 10.9 | 82.6 | 28.1 (≈ 14.4 µg/mL) | – | – | – |
| C[C@H](c1ccc(C(F)(F)F)cc1C(F)(F)F)n1cc(NC(=O)c2cn(-c3ccccn3)nn2)cn1 [Compound 121, (R)—N-(1-(1-(2,4-bis(trifluoromethyl)phenyl)ethyl)-1H-pyrazol-4-yl)-1-(pyridine-2-yl)-1H-1,2,3-triazole-4-carboxamide] | 23.9 | – | 64.5 | 35.5 | 30.5 | 2.9 | 23.6 | > 50 | > 45.9 | 25 to 50 | < 1 | 2.22 | 10.4 | 84.4 | – | 26.4 | 62.5 | 3.51 (≈ 1.74 µg/mL) | 0.968 | 0.873 | – |
